Experimental data: ChEMBL document CHEMBL1137955, “Advances toward new antidepressants beyond SSRIs: 1-aryloxy-3-piperidinylpropan-2-ols with dual 5-HT1A receptor antagonism/SSRI activities. Part 4” (Bioorg Med Chem Lett, 2004)

How the values were obtained:
[1] = molecular target: T1, 5-hydroxytryptamine receptor 1A (Homo sapiens, UniProt P08908); test: Binding affinity was evaluated at 5-hydroxytryptamine 1A receptor labeled with [3H]-8-OH-DPAT
T1 sequence (P08908 whole entry): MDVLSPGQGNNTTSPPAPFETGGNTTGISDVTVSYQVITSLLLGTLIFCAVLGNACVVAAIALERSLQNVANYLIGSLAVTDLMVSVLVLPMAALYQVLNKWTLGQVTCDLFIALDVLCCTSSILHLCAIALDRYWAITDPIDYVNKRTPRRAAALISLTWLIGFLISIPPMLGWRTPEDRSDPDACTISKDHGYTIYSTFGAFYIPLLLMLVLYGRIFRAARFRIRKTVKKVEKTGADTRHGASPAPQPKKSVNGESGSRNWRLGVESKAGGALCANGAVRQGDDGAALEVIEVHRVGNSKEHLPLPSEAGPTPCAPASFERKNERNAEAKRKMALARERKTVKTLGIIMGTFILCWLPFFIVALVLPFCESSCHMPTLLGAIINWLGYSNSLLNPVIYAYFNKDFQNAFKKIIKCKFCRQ

[2] = molecular target: T2, 5-hydroxytryptamine receptor 1A (Homo sapiens) (UniProt P08908); test: Evaluated for stimulation at 1 uM concentration expressed as percent of the maximal [35S]GTP-gamma-S, binding induced by 5-hydroxytryptamine; format: functional
T2 sequence (whole entry): T1 sequence (P08908 whole entry)

[3] = molecular target: Sodium-dependent serotonin transporter (Homo sapiens, UniProt P31645); test: Binding affinity at 5-HT reuptake site labeled with [3H]paroxetine
Sequence of Sodium-dependent serotonin transporter (P31645 whole entry): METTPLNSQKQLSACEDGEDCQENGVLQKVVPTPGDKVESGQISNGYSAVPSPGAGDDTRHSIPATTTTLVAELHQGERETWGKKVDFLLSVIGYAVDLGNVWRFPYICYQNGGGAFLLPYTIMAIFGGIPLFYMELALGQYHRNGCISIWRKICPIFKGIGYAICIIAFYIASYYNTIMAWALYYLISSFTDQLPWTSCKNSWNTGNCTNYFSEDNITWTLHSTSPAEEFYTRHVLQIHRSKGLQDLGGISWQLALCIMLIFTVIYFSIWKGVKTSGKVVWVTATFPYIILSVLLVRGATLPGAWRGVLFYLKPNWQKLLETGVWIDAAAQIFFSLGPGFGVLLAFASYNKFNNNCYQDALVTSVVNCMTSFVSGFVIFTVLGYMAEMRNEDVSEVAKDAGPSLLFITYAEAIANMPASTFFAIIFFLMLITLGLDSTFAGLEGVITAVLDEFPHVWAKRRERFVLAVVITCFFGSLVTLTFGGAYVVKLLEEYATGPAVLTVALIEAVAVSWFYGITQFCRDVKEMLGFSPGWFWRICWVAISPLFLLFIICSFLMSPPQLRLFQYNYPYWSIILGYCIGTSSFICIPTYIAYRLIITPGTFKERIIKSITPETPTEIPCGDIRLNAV

SMILES | Ki [1] | Emax [2] | Ki [3]
COc1cccc2ccc([C@@H]3CCN(C[C@H](O)COc4cccc5[nH]c(C)cc45)[C@@H](C)C3)cc12 | 10.9 nM | 11% | 0.34 nM
O[C@@H](COc1cccc2[nH]ccc12)CN1CCC(c2csc3ccccc23)CC1 | 1.84 nM |  | 
Cc1cc2c(OC[C@@H](O)CN3CC[C@@H](c4cccc5ccsc45)C[C@@H]3C)cccc2[nH]1 | 0.91 nM | 8% | 9.24 nM
Cc1cc2c(OC[C@H](O)CN3CC[C@@H](c4ccc5sccc5c4)C[C@@H]3C)cccc2[nH]1 | 1.43 nM | 12% | 0.3 nM
Cc1cc2c(OC[C@@H](O)CN3CC[C@@H](c4ccc5ccccc5c4)C[C@@H]3C)cccc2[nH]1 | 5.11 nM | 9% | 0.4 nM
Cc1cc2c(OC[C@H](O)CN3CC[C@@H](c4ccc5occc5c4)C[C@@H]3C)cccc2[nH]1 | 1.39 nM | 9% | 1.69 nM
Cc1cc2c(OC[C@H](O)CN3CC[C@@H](c4cccc5sccc45)C[C@@H]3C)cccc2[nH]1 | 1.82 nM | 15% | 4.35 nM
COc1cccc2sc([C@@H]3CCN(C[C@H](O)COc4cccc5[nH]c(C)cc45)[C@@H](C)C3)cc12 |  | 3% | 0.86 nM
Cc1cc2c(OC[C@@H](O)CN3CC[C@@H](c4ccc5ccsc5c4)C[C@@H]3C)cccc2[nH]1 | 4.45 nM | 12% | 0.75 nM
O[C@@H](COc1cccc2[nH]ccc12)CN1CCC(c2cc3ccccc3s2)CC1 | 3.7 nM | 12% | 16.7 nM
Cc1cc2c(OC[C@@H](O)CN3CC[C@@H](c4cc5ccccc5s4)C[C@@H]3C)cccc2[nH]1 |  |  | 0.53 nM
Cc1cc2c(OC[C@@H](O)CN3CC[C@@H](c4ccc5scc(C)c5c4)C[C@@H]3C)cccc2[nH]1 | 3.12 nM | 8% | 0.54 nM
Cc1cc2c(OC[C@@H](O)CN3CC[C@@H](c4cccc5occc45)C[C@@H]3C)cccc2[nH]1 | 1.23 nM | 8% | 7.18 nM
Cc1cc2c(OC[C@@H](O)CN3CC[C@@H](c4ccc5ccoc5c4)C[C@@H]3C)cccc2[nH]1 | 1.05 nM | 6% | 3.77 nM
Cc1cc2c(OC[C@@H](O)CN3CC[C@@H](c4ccc5c(C)csc5c4)C[C@@H]3C)cccc2[nH]1 | 7.82 nM | 4% | 0.58 nM
